pEC50, pIC50: −log10 of the molar value. ≈ marks a conversion by molar mass, not a printed value. Read-outs that look alike come from different tables or passages of the source.
What was measured:
human PXR = target: T1, human PXR (Homo sapiens, UniProt O75469); test: PXR nuclear receptor luciferase reporter assay (Indigo Biosciences), agonist mode; type: cell-based; conditions: for pEC50: 3 independent experiments, read-out: Agonism of PXR transcriptional activity expressed as EC50 Molar (95% CI range)
T1 construct: host or cells: proprietary human cells engineered to express the hybrid receptor
T1 sequence (O75469 146-433 limits assumed): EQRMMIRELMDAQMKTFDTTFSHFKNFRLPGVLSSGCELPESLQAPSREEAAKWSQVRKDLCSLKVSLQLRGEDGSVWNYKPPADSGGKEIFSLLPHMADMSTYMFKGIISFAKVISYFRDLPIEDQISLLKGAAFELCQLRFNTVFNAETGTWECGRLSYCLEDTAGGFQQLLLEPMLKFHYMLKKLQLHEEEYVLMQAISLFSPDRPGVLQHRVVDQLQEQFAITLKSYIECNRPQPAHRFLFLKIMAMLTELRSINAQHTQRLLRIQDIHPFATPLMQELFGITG
Source text: This assay product from Indigo Biosciences (Pennsylvania, USA) utilizes cells that express a hybrid form of human PXR. The N-terminal sequence encoding the PXR DNA binding domain (DBD) was substituted with that of the yeast GAL4-DBD. The native PXR ligand binding domain (LBD) and other C-terminal domains remain intact and functional. Ligand interaction activates the receptor, causing it to bind to the GAL4 DNA binding sequence, which is functionally linked to a resident luciferase reporter gene. Thus, quantifying changes in luciferase activity in the treated reporter cells provides a sensitive surrogate measure of the changes in PXR activity. The principle application of this reporter assay system is in the screening of test samples to quantify any functional activity, either agonist or antagonist, that they may exert against human PXR. […] The p value was calculated using Prism parametric, paired t test analysis.

[1] = system: NFkB transcription factor; test: NFkB reporter assay (Indigo Biosciences), antagonist mode, TNFα stimulated human kidney epithelial cells; type: cell-based; conditions: for pIC50: Homo sapiens, Epithelial cell, 30 ng/mL TNFα, 24 hours, 2 independent experiments, read-out: Antagonism of NFkB activity IC50 Molar (95% CI range)
Method: The NFkB nuclear receptor assay system from Indigo Biosciences utilizes human kidney epithelial cells transiently transfected with an NF-kB reporter. The NFkB biologic activity measured as transcriptional activity from these reporter cells demands the same orchestration of all intracellular molecular interactions and events that can be expected to occur in vivo. Cells were treated under antagonist mode in the presence of 30 ng/mL TNFα to stimulate the NFkB inflammatory cascade. […] After 24 hours, luminescence which is proportional to NFkB transcriptional activity was quantitated. […] The p value was calculated using Prism parametric, paired t test analysis.

[2] = system: NFκB transcriptional activity; test: NFκB luciferase reporter cell line stimulated with PMA, TNFα or LPS; type: cell-based; conditions: for pIC50: 24 hr incubation
Method: To establish that NFκB inhibition occurs upon rifamycin-induced PXR activation, a reporter cell line expressing full length NFκB and harboring luciferase reporter gene functionally linked to upstream NFκB genetic response elements, was stimulated with either PMA, TNFα or LPS to induce NFκB. Rifamycin or rifaximin were dose-titrated onto these stimulated cells. After 24 hr incubation, luminescence correlating to NFκB transcriptional activity was quantified.

[3] = system: IL1β-induced synthesis of IL-8 in colonic epithelial cells; test: IL1β-induced IL-8 synthesis in colonic epithelial cells; type: cell-based
Source text: PMA or diacyl glycerol-activated PKC is important for T cell receptor or IgE-induced NFκB that occurs in immune cells, like T cells and mast cells, respectively. On the other hand, TNF or LPS-induced NFκB that occurs in colonic epithelial cells requires other signaling factors (TRAFs, TNFR-associated factors). Most importantly, for its relevance in IBS or IBD, NFκB biologic function was confirmed in colonic epithelial cells. […] These cell-dependent requirements for inducing inflammation imply that by acting on various target cells, rifamycin's anti-inflammatory potential is broad because dysregulated immune and epithelial cell interactions contribute to the pathogenesis of several GI disorders.

[4] = Safety and tolerability in healthy volunteers; type: in vivo, human
[5] = system: Methanobrevibacter smithii (DSMZ 11975); test: MIC (Minimum Inhibiting Concentration) on bacterial strain; type: cell-based
[6] = PMA stimulus, read-out: IC50, antagonism of PMA-induced NFκB activity
[7] = up to the highest concentration tested

CO[C@H]1/C=C/O[C@@]2(C)Oc3c(C)c(O)c4c(O)c(cc(O)c4c3C2=O)NC(=O)/C(C)=C\C=C\[C@H](C)[C@H](O)[C@@H](C)[C@@H](O)[C@@H](C)[C@H](OC(C)=O)[C@@H]1C [Rifamycin SV, (2S,12Z,14E,16S,17S,18R,19R,20R,21S,22R,23S,24E)-21-(acetyloxy)-6,9,17,19-tetrahydroxy-23-methoxy-2,4,12,16,18,20,22-heptamethyl-1,11-dioxo-1,2-dihydro-2,7-(epoxypentadeca[1,11,13]trienimino)naphtho[2,1-b]furan-5-ol]
pEC50 (human PXR): 8.22 | times more potent than rifaximin in stimulating PXR transcriptional activity (human PXR; from rifaximin at 30 μM vs rifamycin SV at 0.3 μM): 250 times | times more potent than rifampicin (PXR) (human PXR; vs rifampicin, positive control): 180 times | times more potent than rifaximin at stimulating PXR transcriptional activity (human PXR; vs rifaximin): 200-440 times | pIC50 [1]: 7.64 | times more potent than rifaximin at inhibiting NFkB transcriptional activity ([1]; vs rifaximin): 4000 times | pIC50 ([2]; LPS stimulus, read-out: IC50, antagonism of LPS-induced NFκB activity): 5.46 | times higher potency than rifaximin, PMA-induced NFκB activity ([2]; PMA stimulus): 6 times | pIC50 [2, 6]: 7.81 | pIC50 ([2]; TNFα stimulus, read-out: IC50, antagonism of TNFα-induced NFκB activity): 4.83 | IL1β-induced synthesis of IL-8 [3]: significantly inhibited | change in vital signs, BW, ECGs or laboratory parameters ([4]; after treatment, 600 mg t.i.d., 14 days): No significant change | change in liver or kidney functions ([4]; during the multiple doses treatment): No significant change | discontinuation due to AEs ([4]; tablets of Example 1, 600 mg t.i.d., 14 days): no subject discontinued the study due to AEs | severe AEs ([4]; tablets of Example 1, 600 mg t.i.d., 14 days, 18 healthy subjects): No severe AEs were reported

Cc1ncc([N+](=O)[O-])n1CCO [Metronidazole]
MIC ([5]; DSMZ11975, read-out: MIC): 25 µg/mL (≈ 146 µM)

NC[C@@H]1O[C@H](O[C@H]2[C@@H](O)[C@H](O[C@@H]3[C@@H](O)[C@H](N)C[C@H](N)[C@H]3O[C@H]3O[C@H](CN)[C@@H](O)[C@H](O)[C@H]3N)O[C@@H]2CO)[C@H](N)[C@@H](O)[C@@H]1O [Neomycin]
MIC [5]: >100 µg/mL

CO[C@H]1/C=C/O[C@@]2(C)Oc3c(C)c([O-])c4c(O)c(cc(O)c4c3C2=O)NC(=O)/C(C)=C\C=C\[C@H](C)[C@H](O)[C@@H](C)[C@@H](O)[C@@H](C)[C@H](OC(C)=O)[C@@H]1C.[Na+] [Rifamycin SV sodium]
MIC [5]: <1 µg/mL

CO[C@H]1/C=C/O[C@@]2(C)Oc3c(C)c(O)c4c(O)c(c5c(nc6cc(C)ccn65)c4c3C2=O)NC(=O)/C(C)=C\C=C\[C@H](C)[C@H](O)[C@@H](C)[C@@H](O)[C@@H](C)[C@H](OC(C)=O)[C@@H]1C [Rifaximin]
pEC50 (human PXR): 5.74 | times less potent than rifamycin SV at 0.3 μM (PXR) (human PXR; rifaximin at 30 μM): 2.5 times | pIC50 [1]: 4.08 | pIC50 [2, 6]: 7.03 | inhibition of LPS-induced NFκB activity [2, 7]: did not inhibit | inhibition of TNFα-induced NFκB activity [2, 7]: did not inhibit | MIC ([5]; DSMZ11975, read-out: MIC): 25 µg/mL (≈ 31.8 µM)

Reference: patent US20240398699A1 (COSMO TECHNOLOGIES LTD., priority 2017, published 2024)
